Experiments:
α-fodrin = experiment: Western blot of α-fodrin cleavage products in cortex after CCI induced TBI; format: in vivo, mice; settings: NALL fed vs vehicle fed mouse cortices after TBI; oral gavage 10 mg/kg daily 4 days plus chow
Description: Controlled cortical impact (CCI) induced TBI was performed in male C57BL6/J mice (20-25 g). Briefly, after a 10-mm midline incision was made over the skull, the skin and fascia were retracted, and a 4-mm craniotomy was made on the central aspect of the left parietal bone of mice under surgical anesthesia (2-3% isoflurane evaporated in a gas mixture containing 70% N20 and 30% 02). Moderate injury was induced in the exposed brain by a custom microprocessor-controlled and compressed air driven pneumatic impactor of 3.5 mm diameter tip with the impact velocity of 6 m/s and a deformation depth of 2 mm. […]
The level of α-fodrin cleavage products in NALL treated, vehicle treated sham, and TBI mouse cortices were determined by Western blot analysis and using the TUNEL assay to assess whether NALL treatment decreases cortical cell death after TBI.
Around 5 mm tissue of ipsilateral cortex around the site of injury from TBI mice or the corresponding tissue of same volume around the same cortical region from sham mice were dissected and processed. […] Protein bands were detected using chemiluminiscence kit (Pierce, 34076) and visualized using Chemi-doc system (Bio-Rad). Band intensity was analyzed using Image Lab software (Bio-Rad) and normalized to loading control (β-Actin). […]

LC3-II and APP-CTFs = experiment: EAL flux in NPC1 mice (cerebellum LC3-II and APP-CTFs); format: in vivo, mouse; settings: treated 3 weeks
Excerpt: FIG. 14 is a histogram of the ratio of LC3-II expression to βIII-tubulin in the cerebellum of mouse NPC1 brains at 9-12 weeks of age treated with ADLL, ALL, ADL, DLL, LL, DL, LLE, and miglustat (miglu.) for 3 weeks relative to untreated NPC1 cerebellum (n=4, mean±S.E.M).
FIG. 15 is a histogram of the ratio of APP-CTFs: full-length APP expression in the cerebellum of mouse NPC1 brains at 9-12 weeks of age treated with ADLL, ALL, ADL, DLL, LL, DL, LLE, and miglustat (miglu.) for 3 weeks relative to untreated NPC1 cerebellum (n=4, mean±S.E.M).
FIG. 16 is a histogram of the ratio of APP-CTF-6: full-length APP expression in the cerebellum of mouse NPC1 brains at 9-12 weeks of age treated with ADLL, ALL, ADL, DLL, LL, DL, and LLE for 3 weeks relative to untreated NPC1 cerebellum.
FIG. 17 is a histogram of the ratio of APP-CTF-7: full-length APP expression in the cerebellum of mouse NPC1 brains at 9-12 weeks of age treated with ADLL, ALL, ADL, DLL, LL, DL, and LLE for 3 weeks relative to untreated NPC1 cerebellum (n=4, mean±S.E.M).
The efficacy of ADLL, ALL, ADL, DLL, LL, DL, and LLE in alleviating the impairment of EAL flux in NPC1 mice was investigated. […] Without wishing to be bound by any particular theory, it is possible that ADL and LLE reduced autophagic vacuole (AV) build-up by inhibiting autophagosome formation, possibly through the activation mTORC1. […] Also, acetyl L-leucine (ALL), acetyl D-leucine (ADL) and L-leucine (LL) reduced CTF-7 expression, indicating some improvement in lysosomal proteolysis (FIG. 17).

[1] = tested on: rat primary cortical neurons (NE and NG cultures); experiment: Truncated tau and neuronal markers in neuron-enriched and neuron-glia cultures; format: cell-based
Description: FIG. 20 is eight Western blots of tau (5E2), synaptophysin and βIII-tubulin in rat primary cortical neurons (neuron-enriched (NE) and neuron-glia (NG) cultures) in the absence and presence of ADLL, ALL, ADL, DLL, LL, DL, and LLE (1 mM, 5 days).
The efficacy of ADLL, ALL, ADL, DLL, LL, DL, and LLE in reducing truncated tau levels in neuron-glia (NG) cultures was investigated. The results of this study are provided in FIGS. 20-24 One aim of this study was to determine whether ADLL, ALL, ADL, DLL, LL, DL, and LLE conferred intrinsic neuroprotection by sustaining neuronal function under conditions of cellular overgrowth, or whether they acted indirectly through the non-autonomous modulation of glial cells. Irrespective of whether the compounds acted directly or indirectly on neurons, preventing the generation of truncated tau confers beneficial effects to neuronal integrity.
Cultures were treated for five days (DIV 9-14) with 1 mM of ADLL, ALL, ADL, DLL, LL, DL, or LLE, and were subsequently assessed for a number of neuron-specific markers that could provide a readout on neuronal health: βIII-tubulin, full-length tau, truncated tau (antibody 5E2) and synaptophysin. ADLL, ALL, ADL, DLL, LL, DL, and LLE were well-tolerated in NE and NG cultures, as evidenced by consistently equal levels of synaptophysin and βIII-tubulin detected across untreated (control) and drug-treated samples (FIGS. 20, 23, and 24). None of ADLL, ALL, ADL, DLL, LL, DL, and LLE reduced basal levels of truncated tau in NG cultures at DIV14 (FIG. 20 and FIG. 22).

[2] = tested on: cerebellar Purkinje cells; experiment: Purkinje cell survival in Npc1−/− mice; format: in vivo; settings: 59 days of age, compared to Npc1−/− UT
Excerpt: FIG. 46 is an image showing cerebellar Purkinje cell loss progressing from anterior to posterior lobes and microglial activation in untreated Npc1^−/− mice and Npc1^−/− mice treated with ADLL, ALL, and ADL. Cerebellums were stained with calbindin-b (Purkinje cells) or CD68 (activated microglia).
FIG. 47 is a scatter graph showing Purkinje cell survival at 59 days of age in untreated Npc1^−/− mice and Npc1^−/− mice treated with ADLL, ALL, and ADL.
The combination of increased survival of neurons and a less inflammatory environment in the brain could improve brain function, quality of life, and delay the progression of disease in human subjects.

CC(=O)N[C@@H](CC(C)C)C(=O)O [ALL, acetyl-L-leucine]
level of 145-150 kDa fragments of α-fodrin (α-fodrin): lower level | CTF-7 expression / clearance (LC3-II and APP-CTFs): reduced | tolerability (levels of synaptophysin and βIII-tubulin vs untreated control) ([1]; NE and NG cultures, 1 mM, five days (DIV 9-14)): well-tolerated | reduction of basal levels of truncated tau ([1]; NG cultures at DIV14, 1 mM, five days): None | Purkinje cell survival in any cerebellar lobules [2]: did not improve

— patent US20220142959A1, “LEUCINE, ACETYL LEUCINE, AND RELATED ANALOGS FOR TREATING DISEASE” (priority 2019, published 2022)
